The text below walks through data of patent US12404268B2, “2-heteroaryl aminoquinazolinone derivative” (Sumitomo Pharma Co., Ltd., priority 2020, dated 2025).

Molecules are shown by their SMILES. Bounds are passed on as bounds.

Series [1] relates to male Slc:ddY mice (pentetrazol-induced clonic seizure). The series can be described thus: Model subcutaneously injected with pentetrazol (minimum seizure model, scPTZ). The series is classed as in vivo, mouse. Particulars: 85 mg/kg pentetrazol s.c. 1 hour after oral dosing, observed 30 minutes. Here is the method: Evaluation of Model Subcutaneously Injected with Pentetrazol (Minimum Seizure Model, scPTZ)
This test evaluates the antiseizure effect of a medicament. The animal model used in this test is a phenotype of generalized absence seizure or myoclonic seizure. The test compound was orally administered to male Slc:ddY mice (group of five, body weight: 20 to 30 g), and 85 mg of pentetrazol/kg was subcutaneously administered 1 hour later. The presence/absence of expression of clonic seizure during 30 minutes was then observed. The dose at which […] (ED50) was calculated. 0.5% methylcellulose solution was administered for the control.

Series [2] deals with male Slc:ddy mice. As to the kind of experiment: Rotarod evaluation (motor coordination). It is filed as in vivo, mouse. Particulars: rotarod 15 rpm, 50 minutes after oral dosing, 180 seconds. How it is done: The test evaluates the effect of suppressing the ability of motor coordination of a medicament. Male Slc:ddy mice (body weight: 20 to 30 g) were trained to walk for 5 minutes with a rotarod apparatus (apparatus for rotating a cylindrical bar with a 4 cm diameter, 12 rpm) on the day of the test. A test compound was orally administered to a group of 5 mice. […] Animals that fell off within 180 seconds due to incoordination were counted. […] 0.5% methylcellulose solution was administered for the control.
In general terms: In the rotarod test animals must keep their balance on a rotating rod.

The subject of series [3] is SCN1A loss-of-function genetic mutation mice (epileptic spike). As to the kind of experiment: Evaluation of epileptic spike using SCN1A-mutated animal. It is filed as in vivo, mouse. Particulars: F1 SCN1A-mutated mice; spike frequency over 3 hours before and after administration. How it is done: Evaluation of Epileptic Spike Using SCN1A-Mutated Animal
This test evaluates the inhibitory effect of a medicament on epileptic spike expressed with an SCN1A loss-of-function genetic mutation.
Febrile seizure was induced in the SCN1A-mutated mice (6 to 10 week old) described above from increasing the body temperature by placing and continuously incubating the mice in a plastic chamber whose internal temperature was increased by incubation using a warm bath of about 43° C. After two weeks from inducing febrile seizure, a head mount (cat #8201-SS, Pinnacle Technology) was mounted on the head of the mice. Two weeks after mounting the head mount, the F1 SCN1A loss-of-function genetic mutation mice (25 to 32 g) were connected to a seizure EEG recording system (Pinnacle Technology), and the test compound was administered. The epileptic spike frequency over 3 hours before and after administration of the compound was measured, and the dose at which epileptic spike frequency is suppressed to 50% after the administration (ED50) was calculated.

In series [4] the test system is neurons induced to differentiate from SCN1A gene deficient human iPS cells. As to the kind of experiment: Test for measuring hyperexcitation suppression activity (spontaneous calcium oscillation frequency). It is filed as cell-based. Particulars: Neuron; for inhibition at 1 µM / inhibition at 0.1 µM / inhibition at 10 µM: Homo sapiens, read-out: inhibition rate; for IC50: SCN1A gene deficient human iPS cell-derived neurons, FLIPR Calcium 6, FDSS7000EX, read-out: IC50 (50% inhibitory concentration, frequency of spontaneous calcium oscillation). The method in brief: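 SCN1A-deficient iPS-derived neurons used from day 60 of differentiation, loaded 30 min with Calcium 6 probe. Compounds at final 0.1–100 μM; spontaneous calcium oscillation frequency recorded on FDSS7000EX, with the last 2 of 8 min post-addition expressed relative to the 2 min baseline.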

Series [5] has as its system male Slc:ddY mice (electroshock-induced tonic extensor seizure). The series can be described thus: Maximal electroshock seizure (MES) model. Particulars: corneal stimulation 60 Hz, 50 mA, 0.2 seconds 1 hour after oral dosing. The series is classed as in vivo, mouse. Here is the method: Evaluation of Maximal Electroshock Seizure (MES) Model
This test evaluates the antiseizure effect of a medicament in the same manner as Test Example 3. The animal model used in this test is a phenotype of generalized tonic-clonic seizure and secondary generalized partial seizure. The test compound was orally administered to male Slc:ddY mice (group of five, body weight: 20 to 30 g), and electrical stimulation (60 Hz, 50 mA, 0.2 seconds) was applied through the cornea 1 hour later. Suppression of induced expression of tonic extensor seizure of the rear limb was observed. The dose at which […] (ED50) was calculated. 0.5% methylcellulose solution was administered for the control.
For orientation: In the maximal electroshock model the usual endpoint is tonic extension of the hind limbs.

Turning to `N#Cc1ccc2nc(Nc3cccnc3)n(-c3ccccc3)c(=O)c2c1` [Example 3, 4-oxo-3-phenyl-2-(pyridin-3-ylamino)-3,4-dihydroquinazoline-6-carbonitrile], in series [1], the “ED50 (clonic seizure)” value is reported as 0.74 mg/kg, p.o. Moreover, the “TD50 (dosage at which 50% of animals fall off)” value in series [2] is listed as 2.0 mg/kg, p.o. Besides, the “ED50 (dose at which epileptic spike frequency is suppressed to 50%)” value in series [3] is 0.66 mg/kg, p.o. For the same compound, in series [4], the inhibition at 1 µM is 97%.

Turning to `O=c1c2cc(F)ccc2nc(Nc2cccnc2)n1-c1ccccc1` [Example 12, 6-fluoro-3-phenyl-2-(pyridin-3-ylamino)quinazolin-4(3H)-one], the “ED50 (clonic seizure)” value in series [1] was 0.25 mg/kg, p.o. Besides, the “TD50 (dosage at which 50% of animals fall off)” value in series [2] is listed as 1.8 mg/kg, p.o. For the same compound, in series [3], the “ED50 (dose at which epileptic spike frequency is suppressed to 50%)” value was 0.18 mg/kg, p.o. Besides, the IC50 in series [4] came to 0.2 µM. In addition, in series [5], the “ED50 (tonic extensor seizure)” value was 0.56 mg/kg, p.o.

As to `O=c1c2ccccc2nc(Nc2cccnc2)n1-c1ccccc1` [Example 14, 3-phenyl-2-(pyridin-3-ylamino)quinazolin-4(3H)-one], in series [1], the “ED50 (clonic seizure)” value is listed as 4.17 mg/kg, p.o. In addition, the “TD50 (dosage at which 50% of animals fall off)” value in series [2] was 7.38 mg/kg, p.o. Further, the “ED50 (dose at which epileptic spike frequency is suppressed to 50%)” value in series [3] is 5.83 mg/kg, p.o. Besides, in series [4], the IC50 came to 1.8 µM.

`O=c1c2cc(F)cc(F)c2nc(Nc2cccnc2)n1-c1ccccc1` [Example 32, 6,8-difluoro-3-phenyl-2-(pyridin-3-ylamino)quinazolin-4(3H)-one]: the “ED50 (clonic seizure)” value in series [1] was 4.17 mg/kg, p.o. For the same compound, in series [2], the “TD50 (dosage at which 50% of animals fall off)” value is 8.83 mg/kg, p.o. Also, the “ED50 (dose at which epileptic spike frequency is suppressed to 50%)” value in series [3] is 1.48 mg/kg, p.o. Moreover, the inhibition at 1 µM in series [4] was determined as 80%.

Consider `Cc1ccccc1-n1c(Nc2cccnc2)nc2ccc(C#N)cc2c1=O` [Example 109, 4-oxo-2-(pyridin-3-ylamino)-3-(o-tolyl)-3,4-dihydroquinazoline-6-carbonitrile], for which the “ED50 (clonic seizure)” value in series [1] was 0.25 mg/kg, p.o. Further, the “TD50 (dosage at which 50% of animals fall off)” value in series [2] is on record as 2.0 mg/kg, p.o. Also, the “ED50 (dose at which epileptic spike frequency is suppressed to 50%)” value in series [3] is reported as 0.19 mg/kg, p.o. In addition, the inhibition at 0.1 µM in series [4] worked out at 59%.

Consider `Cc1ccccc1-n1c(Nc2cncc(F)c2)nc2ccc(C#N)cc2c1=O` [Example 114, 2-((5-fluoropyridin-3-yl)amino)-4-oxo-3-(o-tolyl)-3,4-dihydroquinazoline-6-carbonitrile], for which the “ED50 (clonic seizure)” value in series [1] is given as 0.065 mg/kg, p.o. For the same compound, in series [2], the “TD50 (dosage at which 50% of animals fall off)” value is 0.2 mg/kg, p.o. Further, the “ED50 (dose at which epileptic spike frequency is suppressed to 50%)” value in series [3] is recorded as 0.044 mg/kg, p.o. Moreover, in series [4], the inhibition at 0.1 µM was found to be 55%.

Turning to `Cc1cc2nc(Nc3cccnc3)n(-c3ccccc3)c(=O)c2cn1` [Example 193], the IC50 in series [4] was greater than 10 µM.

In the case of `Cc1cc2c(=O)n(-c3ccccc3)c(Nc3cccnc3)nc2cn1` [Example 194], the IC50 in series [4] is greater than 10 µM.

Consider `Cc1noc(C)c1-n1c(Nc2cccnc2)nc2ccc(F)cc2c1=O` [Example 195], for which the IC50 in series [4] was greater than 10 µM.

As for `CC1(n2c(Nc3cccnc3)nc3ccc(F)cc3c2=O)CC1` [Example 196], the IC50 in series [4] was greater than 10 µM.

For `O=c1c2cc(F)ncc2nc(Nc2cccnc2)n1CCc1ccccn1` [Example 197], the IC50 in series [4] is greater than 10 µM.

With `Cc1ccc2nc(Nc3cccnc3)n(-c3ccccc3)c(=O)c2n1` [Example 198], the IC50 in series [4] is greater than 10 µM.

Take `O=c1c2cc(F)ccc2nc(Nc2cccnc2)n1[C@H]1CCOC1` [Example 199]: the IC50 in series [4] was greater than 10 µM.

Turning to `CO[C@H]1CC[C@H](n2c(Nc3cccnc3)nc3ccc(F)cc3c2=O)CC1` [Example 200], the IC50 in series [4] is greater than 10 µM.

Turning to `C[C@H]1CC[C@H](n2c(Nc3cccnc3)nc3ccc(F)cc3c2=O)CC1` [Example 201], the IC50 in series [4] was greater than 10 µM.

Consider `Cc1cnc2nc(Nc3cccnc3)n(-c3ccccc3)c(=O)c2c1` [Example 202], for which, in series [4], the IC50 is greater than 10 µM.

Regarding `COCCn1c(Nc2cccnc2)nc2ccc(F)cc2c1=O` [Example 203], in series [4], the IC50 is greater than 10 µM.

Regarding `O=c1c2cc(F)ccc2nc(Nc2cccnc2)n1C1COC1` [Example 204], the IC50 in series [4] is greater than 10 µM.

For the compound `O=c1c2cc(F)ccc2nc(Nc2cccnc2)n1C1(c2ccccc2)CCC1` [Example 205], the IC50 in series [4] is greater than 10 µM.

`O=c1c2cc(F)ccc2nc(Nc2cccnc2)n1C1(c2ccccn2)CC1` [Example 206]: in series [4], the IC50 was greater than 100 µM.

Turning to `CN(C)CCn1c(Nc2cccnc2)nc2ccc(F)cc2c1=O` [Example 207], the IC50 in series [4] is greater than 10 µM.

Regarding `CN1C[C@H]2CC[C@@H](C1)[C@@H]2n1c(Nc2cccnc2)nc2ccc(F)cc2c1=O` [Example 208], the IC50 in series [4] was greater than 100 µM.

With `O=c1c2cc(F)ccc2nc(Nc2csc(Cl)c2)n1-c1ccccc1` [Example 209], the IC50 in series [4] is greater than 100 µM.

Turning to `CC(=O)Nc1ccc2nc(Nc3cccnc3)n(-c3ccccc3)c(=O)c2c1` [Example 210], the IC50 in series [4] was greater than 100 µM.

`CS(=O)(=O)Nc1ccc2nc(Nc3cccnc3)n(-c3ccccc3)c(=O)c2c1` [Example 211]: in series [4], the IC50 was greater than 100 µM.

Take `CN(C)c1ccc2nc(Nc3cccnc3)n(-c3ccccc3)c(=O)c2c1` [Example 212]: the IC50 in series [4] was greater than 10 µM.

As to `CN(C)C(=O)c1ccc2nc(Nc3cccnc3)n(-c3ccccc3)c(=O)c2c1` [Example 213], the IC50 in series [4] was greater than 100 µM.

As for `Cc1ccccc1-n1c(Nc2cccnc2)nc2ccc(S(C)(=O)=O)cc2c1=O` [Example 214], the IC50 in series [4] was greater than 100 µM.

In the case of `CN(C)c1cncc(-n2c(Nc3cccnc3)nc3ccc(F)cc3c2=O)c1` [Example 215], the IC50 in series [4] is greater than 10 µM.

With `CN(C)c1cncc(Nc2nc3ccc(F)cc3c(=O)n2-c2ccccc2)c1` [Example 216], the IC50 in series [4] is greater than 100 µM.

Consider `O=c1c2cc(Cl)ccc2nc(Nc2cn[nH]c2)n1-c1ccccc1` [Example 217], for which, in series [4], the IC50 was greater than 10 µM.

On to `COc1cncc(Nc2nc3ccc(Cl)cc3c(=O)n2-c2ccccc2)c1` [Example 218], for which the IC50 in series [4] was greater than 10 µM.

As for `O=c1c2cccc(Cl)c2nc(Nc2cccnc2)n1-c1ccccc1` [Example 219], the IC50 in series [4] is greater than 100 µM.

For the compound `COc1cc2nc(Nc3cccc4ncccc34)n(C)c(=O)c2cc1OC` [Example 220], the IC50 in series [4] is greater than 10 µM.

Turning to `NC(=O)c1ccc(Nc2nc3ccc(Cl)cc3c(=O)n2-c2ccccc2)nc1` [Example 221], the IC50 in series [4] is greater than 10 µM.

As for `O=c1c2ccc(F)cc2nc(Nc2cccnc2)n1-c1ccccc1` [Example 222], the IC50 in series [4] is greater than 100 µM.

Turning to `Cc1cccc2nc(Nc3cccnc3)n(-c3ccccc3)c(=O)c12` [Example 223], in series [4], the IC50 was greater than 100 µM.

Turning to `Cc1cccc2c(=O)n(-c3ccccc3)c(Nc3cccnc3)nc12` [Example 224], the IC50 in series [4] was greater than 100 µM.

Turning to `COc1ccc2c(=O)n(-c3ccccc3)c(Nc3cccnc3)nc2c1` [Example 225], in series [4], the IC50 was greater than 100 µM.

As to `O=c1c2ccc(F)cc2nc(Nc2cncc(F)c2)n1-c1ccccc1` [Example 226], in series [4], the IC50 is greater than 100 µM.

Consider `COc1cc(Nc2nc3ccc(F)cc3c(=O)n2-c2ccccc2)ccn1` [Example 227], for which the IC50 in series [4] was greater than 100 µM.

With `O=c1c2cc(Cl)ccc2nc(Nc2nnco2)n1-c1ccccc1` [Example 228], the IC50 in series [4] is greater than 10 µM.

Regarding `O=c1c2cc(Cl)ccc2nc(Nc2nncs2)n1-c1ccccc1` [Example 229], the inhibition at 10 µM in series [4] came to 5%.

Regarding `O=c1c2cc(Cl)ccc2nc(Nc2ncns2)n1-c1ccccc1` [Example 230], the inhibition at 10 µM in series [4] was 2%.

For the compound `Cn1cnc(Nc2nc3ccccc3c(=O)n2-c2ccccc2)c1` [Example 231], in series [4], the IC50 was greater than 10 µM.

Regarding `O=c1c2ccccc2nc(Nc2ccon2)n1-c1ccccc1` [Example 232], the inhibition at 10 µM in series [4] was 73%.

Usually inhibition stands for the percentage by which the read-out fell short of the control.
